Experimental findings from patent US7001907B2, “Peptide-containing α-ketoamide cysteine and serine protease inhibitors” (Cephaon, Inc., priority 1997, dated 2006) are described below.

SMILES strings stand for the structures.

The IC50 is the concentration at which inhibition is half-maximal.

The first assay has as its target T1, Recombinant human calpain I (Homo sapiens, UniProt P07384).
T1 construct: made in house
T1 sequence (P07384 1-714): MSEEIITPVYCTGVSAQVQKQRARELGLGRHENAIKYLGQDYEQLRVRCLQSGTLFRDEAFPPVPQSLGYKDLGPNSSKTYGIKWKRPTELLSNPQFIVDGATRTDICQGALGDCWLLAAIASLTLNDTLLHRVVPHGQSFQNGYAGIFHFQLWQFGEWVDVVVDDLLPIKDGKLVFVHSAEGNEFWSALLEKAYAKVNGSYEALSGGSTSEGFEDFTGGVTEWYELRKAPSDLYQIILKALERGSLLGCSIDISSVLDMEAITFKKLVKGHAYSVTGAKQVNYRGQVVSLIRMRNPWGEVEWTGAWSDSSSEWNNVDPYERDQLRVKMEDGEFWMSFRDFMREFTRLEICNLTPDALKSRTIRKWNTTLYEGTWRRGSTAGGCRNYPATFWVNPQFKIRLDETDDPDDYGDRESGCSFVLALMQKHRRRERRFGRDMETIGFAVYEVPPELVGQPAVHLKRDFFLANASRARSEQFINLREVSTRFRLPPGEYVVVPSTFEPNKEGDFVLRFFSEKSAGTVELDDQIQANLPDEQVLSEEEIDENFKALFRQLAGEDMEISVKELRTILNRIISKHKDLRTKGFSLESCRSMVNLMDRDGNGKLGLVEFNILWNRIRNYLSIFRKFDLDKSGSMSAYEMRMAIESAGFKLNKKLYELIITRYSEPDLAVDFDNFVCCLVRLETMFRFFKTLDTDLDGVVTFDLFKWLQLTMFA
T1 sequence (P04632 1-268 partner): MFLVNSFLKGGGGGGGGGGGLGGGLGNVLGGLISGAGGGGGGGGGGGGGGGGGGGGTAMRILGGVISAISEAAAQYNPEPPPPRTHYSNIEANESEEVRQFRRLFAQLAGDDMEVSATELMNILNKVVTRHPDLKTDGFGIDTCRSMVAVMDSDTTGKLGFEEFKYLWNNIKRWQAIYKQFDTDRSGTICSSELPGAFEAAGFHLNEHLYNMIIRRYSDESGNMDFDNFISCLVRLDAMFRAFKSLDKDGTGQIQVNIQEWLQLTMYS
As to the kind of experiment: Inhibition of cysteine protease activity: calpain I, Succ-Leu-Tyr-MNA substrate hydrolysis. Type of assay: biochemical. The following applies: Table 4, α-ketoamides. The procedure: To evaluate inhibitory activity, stock solutions (40 times concentrated) of each compound to be tested were prepared in 100% anhydrous DMSO and 5 μl of each inhibitor preparation were aliquoted into each of three wells of a 96-well plate. Recombinant human calpain I, prepared by the method of Meyer et al. (Biochem. J. 1996, 314: 511–519; incorporated herein by reference in its entirety), was diluted into assay buffer (i.e., 50 mM Tris, 50 mM NaCl, 1 mM EDTA, 1 mM EGTA, and 5 mM β-mercaptoethanol, pH 7.5, including 0.2 mM Succ-Leu-Tyr-MNA), and 175 μl was aliquoted into the same wells containing the independent inhibitor stocks as well as to positive control wells containing 5 μl DMSO, but no compound. To start the reaction, 20 μl of 50 mM CaCl2 in assay buffer was added to all wells of the plate, excepting three, which were used as background signal baseline controls. Substrate hydrolysis was monitored every 5 minutes for a total of 30 minutes. Substrate hydrolysis in the absence of inhibitor was linear for up to 15 minutes.
Inhibition of calpain I activity was calculated as the percent decrease in the rate of substrate hydrolysis in the presence of inhibitor relative to the rate in its absence. Comparison between the inhibited and control rates was made within the linear range for substrate hydrolysis. The IC50s of inhibitors (concentration yielding 50% inhibition) were determined from the percent decrease in rates of substrate hydrolysis in the presence of five to seven different concentrations of the test compound. The results were plotted as percent inhibition versus log inhibitor concentration, and the IC50 was calculated by fitting the data to the four-parameter logistic equation shown below using the program GraphPad Prism (GraphPad Software, Inc., San Diego, Calif.). y=d+[(a−d)/(1+(x/c)^b)]
The parameters a, b, c, and d are defined as follows: a is % inhibition in the absence of inhibitor, b is the slope, c is the IC50, and d is the % inhibition at an infinite concentration of inhibitor.
On to `CS(=O)(=O)N[C@H](COCc1ccccc1)C(=O)N[C@@H](Cc1ccccc1)C(=O)C(=O)NCCNS(=O)(=O)c1ccc(-c2cccc(C=O)c2)s1` [Compound 52], for which the IC50 worked out at 5 nM.

For `CS(=O)(=O)N[C@H](COCc1ccccc1)C(=O)N[C@@H](Cc1ccccc1)C(=O)C(=O)NCCNC(=NC#N)Oc1ccccc1` [Compound 53], the IC50 was found to be 15 nM.

`CN(C)Cc1cccc(-c2ccc(S(=O)(=O)NCCNC(=O)C(=O)[C@H](Cc3ccccc3)NC(=O)[C@@H](COCc3ccccc3)NS(C)(=O)=O)s2)c1` [Compound 54]: the IC50 amounted to 12 nM.

In the case of `CC(C)(C)OC(=O)NC1CCCC(NC(=O)C(=O)[C@H](Cc2ccccc2)NC(=O)[C@@H](COCc2ccccc2)NS(C)(=O)=O)C1` (stereo partly drawn) [Compound 55], the IC50 worked out at 42 nM.

Take `CS(=O)(=O)N[C@H](COCc1ccccc1)C(=O)N[C@@H](Cc1ccccc1)C(=O)C(=O)NCCNS(=O)(=O)c1ccc(-c2cccc(CN3CCOCC3)c2)s1` [Compound 56]: the IC50 was 18 nM.

Take `CS(=O)(=O)N[C@H](COCc1ccccc1)C(=O)N[C@@H](Cc1ccccc1)C(=O)C(=O)NCCNS(=O)(=O)c1ccc(CN2CCOCC2)cc1` [Compound 57]: the half-maximal inhibitory concentration (IC50) was found to be 18 nM.

For the compound `CN1CCN(Cc2cccc(-c3ccc(S(=O)(=O)NCCNC(=O)C(=O)[C@H](Cc4ccccc4)NC(=O)[C@@H](COCc4ccccc4)NS(C)(=O)=O)s3)c2)CC1` [Compound 58], the concentration for half-maximal inhibition (IC50) was determined as 21 nM.

`CS(=O)(=O)N[C@H](COCc1ccccc1)C(=O)N[C@@H](Cc1ccccc1)C(=O)C(=O)NCCS(=O)(=O)Nc1ccccc1` [Compound 60]: the 50% inhibitory concentration (IC50) was 47 nM.

Consider `CS(=O)(=O)N[C@H](COCc1ccccc1)C(=O)N[C@@H](Cc1ccccc1)C(=O)C(=O)NCCS(=O)(=O)Nc1ccc(C(F)(F)F)cc1` [Compound 61], for which the IC50 turned out to be 32 nM.

As to `CS(=O)(=O)N[C@H](COCc1ccccc1)C(=O)N[C@@H](Cc1ccccc1)C(=O)C(=O)NCCCS(=O)(=O)Nc1ccccc1` [Compound 62], the IC50 worked out at 18 nM.

In the case of `CS(=O)(=O)N[C@H](COCc1ccccc1)C(=O)N[C@@H](Cc1ccccc1)C(=O)C(=O)NCCCS(=O)(=O)Nc1ccc(C(F)(F)F)cc1` [Compound 63], the IC50 worked out at 23 nM.

For the compound `CN(CCNC(=O)C(=O)[C@H](Cc1ccccc1)NC(=O)[C@@H](COCc1ccccc1)NS(C)(=O)=O)S(=O)(=O)c1ccc(-c2cccc(C=O)c2)s1` [Compound 65], the 50% inhibitory concentration (IC50) worked out at 19 nM.

In the case of `C[C@H](OCc1ccccc1)[C@@H](NS(C)(=O)=O)C(=O)N[C@@H](Cc1ccccc1)C(=O)C(=O)NCCNS(=O)(=O)c1ccc(-c2ccccn2)s1` [Compound 66], the half-maximal inhibitory concentration (IC50) is 12 nM.

`CS(=O)(=O)N[C@H](Cc1ccccc1)C(=O)N[C@@H](Cc1ccccc1)C(=O)C(=O)NCCNS(=O)(=O)c1ccc(-c2ccccn2)s1` [Compound 71]: the IC50 was found to be 18 nM.

Take `CS(=O)(=O)N[C@H](COCc1ccccc1)C(=O)N[C@@H](Cc1ccccc1)C(=O)C(=O)NCCCS(=O)(=O)NN1CCOCC1` [Compound 80]: the IC50 was 169 nM.

On to `CS(=O)(=O)N[C@H](COCc1ccccc1)C(=O)N[C@@H](Cc1ccccc1)C(=O)C(=O)NCCCS(=O)(=O)N1CCOCC1` [Compound 81], for which the IC50 came to 124 nM.

On to `CN(C)c1cccc2c(S(=O)(=O)NCCNC(=O)C(=O)[C@H](Cc3ccccc3)NC(=O)[C@@H](COCc3ccccc3)NS(C)(=O)=O)cccc12` [Compound 86], for which the 50% inhibitory concentration (IC50) was 49 nM.

`CS(=O)(=O)N[C@H](COCc1ccccc1)C(=O)N[C@@H](Cc1ccccc1)C(=O)C(=O)NCCNS(=O)(=O)c1cc2ccccc2s1` [Compound 87]: the IC50 stood at 23 nM.

For `CC(C)C[C@H](NC(=O)OCc1ccccc1)C(=O)N[C@@H](CC(C)C)C(=O)N[C@@H](Cc1ccccc1)C(=O)C(=O)NCCNS(=O)(=O)c1ccc(-c2ccccn2)s1` [Compound 88], the IC50 was 33 nM.

On to `CS(=O)(=O)N[C@H](COCc1ccccc1)C(=O)N[C@@H](Cc1ccccc1)C(=O)C(=O)NCCNS(=O)(=O)c1ccc(-c2ccc(C=O)cc2)s1` [Compound 90], for which the IC50 was determined as 17 nM.

As to `COCC1CCCN1Cc1ccc(S(=O)(=O)NCCNC(=O)C(=O)[C@H](Cc2ccccc2)NC(=O)[C@@H](COCc2ccccc2)NS(C)(=O)=O)cc1` (stereo partly drawn) [Compound 91], the IC50 was determined as 19 nM.

As for `CS(=O)(=O)N[C@H](COCc1ccccc1)C(=O)N[C@@H](Cc1ccccc1)C(=O)C(=O)NCCNS(=O)(=O)c1ccc(-c2ccccc2CN2CCOCC2)s1` [Compound 93], the half-maximal inhibitory concentration (IC50) was determined as 40 nM.

Turning to `CS(=O)(=O)N[C@H](COCc1ccccc1)C(=O)N[C@@H](Cc1ccccc1)C(=O)C(=O)NCCNS(=O)(=O)c1ccc(-c2ccc(CN3CCOCC3)cc2)s1` [Compound 94], the IC50 was found to be 22 nM.

For `CS(=O)(=O)N[C@H](COCc1ccccc1)C(=O)N[C@@H](Cc1ccccc1)C(=O)C(=O)NCCNS(=O)(=O)c1ccc(-c2cccc(CN3CCCCC3)c2)s1` [Compound 95], the IC50 was determined as 30 nM.

With `CC(=O)Nc1nc(C)c(S(=O)(=O)NCCNC(=O)C(=O)[C@H](Cc2ccccc2)NC(=O)[C@@H](COCc2ccccc2)NS(C)(=O)=O)s1` [Compound 96], the concentration for half-maximal inhibition (IC50) was determined as 23 nM.

With `CS(=O)(=O)N[C@H](COCc1ccccc1)C(=O)N[C@@H](Cc1ccccc1)C(=O)C(=O)NCCNS(=O)(=O)c1ccc(-c2ccccc2C=O)s1` [Compound 98], the half-maximal inhibitory concentration (IC50) stood at 24 nM.

`CCN(CC)Cc1cccc(-c2ccc(S(=O)(=O)NCCNC(=O)C(=O)[C@H](Cc3ccccc3)NC(=O)[C@@H](COCc3ccccc3)NS(C)(=O)=O)s2)c1` [Compound 101]: the IC50 is 22 nM.

Consider `CN(Cc1cccc(-c2ccc(S(=O)(=O)NCCNC(=O)C(=O)[C@H](Cc3ccccc3)NC(=O)[C@@H](COCc3ccccc3)NS(C)(=O)=O)s2)c1)C1CCCCC1` [Compound 102], for which the half-maximal inhibitory concentration (IC50) worked out at 36 nM.

`CS(=O)(=O)N[C@H](COCc1ccccc1)C(=O)N[C@@H](Cc1ccccc1)C(=O)C(=O)NCCNS(=O)(=O)c1ccc(-c2cccc(CN3CCCC3)c2)s1` [Compound 103]: the IC50 was 24 nM.

Regarding `CS(=O)(=O)N[C@H](COCc1ccccc1)C(=O)N[C@@H](Cc1ccccc1)C(=O)C(=O)NCCNS(=O)(=O)c1ccc(-c2cccc(C#N)c2)s1` [Compound 104], the IC50 was 10 nM.

As for `CS(=O)(=O)N[C@H](COCc1ccccc1)C(=O)N[C@@H](Cc1ccccc1)C(=O)C(=O)NCCNS(=O)(=O)c1ccc(-c2cccc(CN3CCC3)c2)s1` [Compound 106], the half-maximal inhibitory concentration (IC50) worked out at 44 nM.

Regarding `COCCN(CCOC)Cc1cccc(-c2ccc(S(=O)(=O)NCCNC(=O)C(=O)[C@H](Cc3ccccc3)NC(=O)[C@@H](COCc3ccccc3)NS(C)(=O)=O)s2)c1` [Compound 109], the IC50 came to 22 nM.

In the case of `CS(=O)(=O)N[C@H](COCc1ccccc1)C(=O)N[C@@H](Cc1ccccc1)C(=O)C(=O)NCCNS(=O)(=O)c1ccc(-c2cccc(CN3CCSCC3)c2)s1` [Compound 114], the IC50 was 33 nM.

With `CS(=O)(=O)N[C@H](COCc1ccccc1)C(=O)N[C@@H](Cc1ccccc1)C(=O)C(=O)NCCNS(=O)(=O)c1ccc(-c2cccc(CN3CCC(=O)CC3)c2)s1` [Compound 115], the IC50 is 16 nM.

With `CS(=O)(=O)N[C@@H](COCc1ccccc1)C(=O)N[C@@H](Cc1ccccc1)C(=O)C(=O)NCCNS(=O)(=O)c1ccccc1` [Compound 116], the IC50 is 100 nM.

The assay is the same for the next values; noted with them: Table 4; 0.1 μM compound; value in brackets marked *.
Consider `CS(=O)(=O)N[C@H](COCc1ccccc1)C(=O)N[C@@H](Cc1ccccc1)C(=O)C(=O)NC1CCC(=O)NC1` (stereo partly drawn) [Compound 64], for which the “Percent inhibition @ 0.1 μM (Calpain)” value is reported as “(33)* Percent”.
